Source: paper PMC9817100, “Preclinical profiles of SKB264, a novel anti-TROP2 antibody conjugated to topoisomerase inhibitor, demonstrated promising antitumor efficacy compared to IMMU-132” (Frontiers in Oncology, 2022)
Read-outs that look alike come from different tables or passages of the source.

What was measured:
[1] = target: T1, DNA topoisomerase I (Homo sapiens, UniProt P11387); assay: topoisomerase I-mediated DNA relaxation assay (cell-free); assay type: biochemical; conditions: read-out: DNA topoisomerase I inhibition (IC50)
T1 sequence (P11387 1-765): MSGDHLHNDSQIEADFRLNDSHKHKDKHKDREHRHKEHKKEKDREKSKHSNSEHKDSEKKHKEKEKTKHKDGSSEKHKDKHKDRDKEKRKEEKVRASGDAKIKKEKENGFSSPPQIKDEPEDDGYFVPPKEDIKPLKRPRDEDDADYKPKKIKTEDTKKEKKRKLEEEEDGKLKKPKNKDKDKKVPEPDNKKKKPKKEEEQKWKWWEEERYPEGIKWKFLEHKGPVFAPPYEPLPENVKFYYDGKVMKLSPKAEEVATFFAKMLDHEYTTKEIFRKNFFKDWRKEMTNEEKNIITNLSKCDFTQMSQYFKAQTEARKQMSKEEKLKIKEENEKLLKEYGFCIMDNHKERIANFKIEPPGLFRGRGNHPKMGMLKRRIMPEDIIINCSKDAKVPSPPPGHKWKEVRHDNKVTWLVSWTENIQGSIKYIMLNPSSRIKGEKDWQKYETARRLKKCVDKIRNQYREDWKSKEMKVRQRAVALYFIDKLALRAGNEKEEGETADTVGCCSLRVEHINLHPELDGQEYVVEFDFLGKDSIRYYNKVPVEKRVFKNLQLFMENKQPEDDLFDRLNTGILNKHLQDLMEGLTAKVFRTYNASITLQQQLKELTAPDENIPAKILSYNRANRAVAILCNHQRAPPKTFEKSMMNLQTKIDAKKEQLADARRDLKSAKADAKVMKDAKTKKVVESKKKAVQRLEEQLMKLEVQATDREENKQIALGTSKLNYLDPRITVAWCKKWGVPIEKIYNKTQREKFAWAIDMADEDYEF
Excerpt: SKB264 is a TROP2-targeting ADC, which consists of a recombinant humanized anti-TROP2 antibody and a topoisomerase I inhibitor derived from Belotecan (KL610023), integrated together via a sulfonyl pyrimidine-CL2A-carbonate linker. The payload is conjugated with the antibody through irreversible nucleophilic aromatic substitution by tris (2-carboxyethyl) phosphine hydrochloride (TCEP HCl), a reducing agent that can reduce the interchain disulfide bounds. The drug-to-antibody ratio (DAR) of SKB264 was approximately 7.4, which was determined by the reversed-phase chromatography (RPC), and might be the theoretical maximum drug loading number for conventional interchain cysteine conjugation ( Figure 1B ). SKB264 was designed to release payload KL610023 after internalization by TROP2-expressing tumor cells. The inhibitory effect of KL610023 on topoisomerase I was almost similar to that of SN-38, as measured by a topoisomerase I-mediated DNA relaxation assay ( Figure 1C ).
Figure 1 Structure and characterization of SKB264. […] (B) The distribution of the conjugated drug determined by the reverse-phase chromatography analysis (L-0: Unconjugated light chain, L-1: Light chain conjugated with one payload, H-0: Unconjugated heavy chain, H-1: Heavy chain conjugated with one payload, H-2: Heavy chain conjugated with two payloads, H-3: Heavy chain conjugated with three payloads). […]

[2] = test system: HCC1806 (TROP2+); assay: cytotoxic assay (CellTiter-Glo, 72 h) HCC1806; assay type: cell-based, human; conditions: HCC1806, payload comparison, Figure 7C, duplicates; read-out: IC50 inhibition of proliferation of HCC1806 cells
Protocol: Tumor cells were seeded on 96-well plates at the following concentrations: HCC1806 (3,000 cells per well), NCI-N87 (5,000 cells per well), BxPC-3 (2,000 cells per well), Calu-3 (8,000 cells per well), NCI-H23 (TROP2+, 3,000 cells per well), and NCI-H23 (parental, 3,000 cells per well). After overnight incubation, the diluted testing items were added respectively. After 72 h, cell viability was evaluated using a CellTiter-Glo Luminescent Cell Viability Assay (Promega Corp. Madison, WI), following the manufacturer’s instruction.

[3] = test system: HCC1806 xenograft; assay: PK-PD study, single dose, HCC1806 xenograft; assay type: in vivo, BALB/c nude mice
Protocol: Phoenix WinNonlin 8.1 was used to calculate the PK parameters in the non-compartment model, including t 1/2, T max, C max, AUC0-t, and AUC0-∞. […] The half maximal effective concentration (EC50) and half maximal inhibitory concentration (IC50) were calculated using a nonlinear regression model with sigmoidal fitting. The in vitro antitumor activities of drugs were evaluated by a two-tailed paired t-test.

[4] = target: monkey TROP2; assay: ELISA binding to monkey TROP2
Protocol: (§1) An enzyme-linked immunosorbent assay (ELISA) was used to evaluate the binding and dynamics affinity. Human TROP2 protein (1 μg/ml) (Sino Biological Inc, Wayne, PA) was coated on a 96-well plate overnight at 4°C. The plate was then blocked by Super block reagent (ScyTek Inc. Logan UT) at room temperature for 1 h. Diluted SKB264, SKB264 mAb, or isotype control (human IgG1 antibody) was added for incubation at 37°C for 1 h. After washing, the diluted (1:10,000) goat anti-human IgG Fc-horseradish peroxidase (HRP) (Abcam, Waltham, MA) was added for further incubation for 45 min at 37°C. Finally, TMB solution was added for absorbance measurement at 450 nm using a SpectraMax Plus384 Microplate reader (Molecular Devices, USA).
(§2) Firstly, the affinities of SKB264 and SKB264 mAb to TROP2 of different species were evaluated by ELISA. […] Therefore, we performed the pharmacokinetic experiments in cynomolgus monkeys.

[5] = target: rat TROP2 protein; assay: ELISA binding to rat TROP2
Protocol: as §1, §2

[6] = target: T2, mouse TROP2 protein (Mus musculus, UniProt Q8BGV3); assay: ELISA binding to mouse TROP2
T2 sequence (Q8BGV3 25-317): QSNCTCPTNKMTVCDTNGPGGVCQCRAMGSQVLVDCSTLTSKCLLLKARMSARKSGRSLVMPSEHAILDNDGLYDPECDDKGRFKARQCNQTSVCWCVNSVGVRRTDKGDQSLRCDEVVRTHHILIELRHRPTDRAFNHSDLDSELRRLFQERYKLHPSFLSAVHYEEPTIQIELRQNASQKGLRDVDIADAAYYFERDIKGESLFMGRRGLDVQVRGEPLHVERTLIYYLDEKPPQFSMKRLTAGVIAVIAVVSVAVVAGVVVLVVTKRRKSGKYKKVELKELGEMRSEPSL
Protocol: as §1, §2

[7] = test system: TROP2-positive cells HCC1806; assay: cell-level binding to HCC1806 by FACS; set-up: species or system human; conditions: read-out: Antibody EC50 determination on HCC1806
Protocol: (§3) To examine whether the anti-TROP2 mAb plays a targeting role via specifically recognizing the highly expressed TROP2 on the surface of tumor cells, the following experiments were conducted ([17]).
(§4) Figure 2 In vitro activities of SKB264. (A) Binding to human TROP2 estimated by ELISA (duplicates, mean ± SEM). (B) SKB264 binding to HCC1806 and NCI-N87 estimated by FACS. (C) Internalization of SKB264 or SKB264 mAb in HCC1806 and NCI-N87 cells. (D) In vitro cell growth inhibitory activity (triplicates, mean ± SEM) in HCC1806, NCI-N87, BxPC-3, Calu-3, NCI-H23 (TROP2+), and NCI-H23 (parental) cells.

[8] = test system: TROP2-positive cells NCI-N87; assay: cell-level binding to NCI-N87 by FACS; set-up: species or system human; conditions: read-out: Antibody EC50 determination on NCI-N87
Protocol: as §3, §4

[9] = test system: HCC1806 cells; assay: endocytosis (internalization) experiment in HCC1806; assay type: cell-based, human
Protocol: as §3, §4

[10] = test system: NCI-N87 cells; assay: endocytosis (internalization) experiment in NCI-N87; assay type: cell-based, human
Protocol: as §3, §4

[11] = target: T3, Human TROP2 protein (Homo sapiens, UniProt P09758); assay: ELISA binding to human TROP2 protein; set-up: purchased Sino Biological Inc, Wayne, PA
T3 sequence (P09758 27-323): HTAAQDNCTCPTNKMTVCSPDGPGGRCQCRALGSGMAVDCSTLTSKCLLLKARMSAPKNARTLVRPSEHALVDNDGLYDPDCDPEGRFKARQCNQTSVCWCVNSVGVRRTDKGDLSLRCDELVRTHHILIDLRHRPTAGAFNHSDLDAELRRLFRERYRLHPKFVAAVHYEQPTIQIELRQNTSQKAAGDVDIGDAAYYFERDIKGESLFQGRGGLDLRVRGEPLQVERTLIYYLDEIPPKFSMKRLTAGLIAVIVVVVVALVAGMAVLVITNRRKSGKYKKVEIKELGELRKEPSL
Protocol: as §1

[12] = target: T3, Human TROP2 protein; assay: SPR dynamic affinity to human TROP2; assay type: binding; conditions: read-out: K d (KD) to recombinant human TROP2
Protocol: Surface plasmon resonance (SPR) was an alternative method to evaluate dynamic affinity, in which human TROP2 protein was captured with goat anti-human IgG Ab immobilized onto a CM5 sensor chip (Biacore Inc., Raleigh, NC). Serial titrations of SKB264 or IMMU-132 ranging from 0.0823 to 2.22 nM and running buffer were individually injected over the surface, which was captured human TROP2 for an association phase of 120 s, followed by a 600-s dissociation time. Kinetic parameters were calculated using the BIA evaluation software with the average values of two datasets collected on separate days. Association (K a) and dissociation (K d) rate constant values were calculated by fitting analysis assuming a Langmuir binding model ([16]) and a stoichiometry of (1:1) to determine K D (equilibrium dissociation constant) values.

[13] = test system: HCC1806 xenograft; conditions: for TGI: HCC1806 xenograft (Figure 7D)
Protocol: Female BALB/c nude mice (Charles River, Beijing, China) were inoculated with 2×10^6 HCC1806 cells in the right front flank. To evaluate in vivo efficacy of ADC, when the average tumor size reached about 120 mm^3, mice were randomized into 7 groups (n = 6 mice/group). The mice were treated with SKB264 or IMMU-132 at doses of 1, 3, and 10 mg/kg twice a week for six times via i.v. injection. To evaluate the PK-PD of ADC, when the average tumor size reached approximately 270 mm^3, mice were randomized into three groups (n = 5/time point). The mice received a single i.v. injection of control hIgG1, SKB264, or IMMU-132 (3 mg/kg), respectively. Blood samples (from five mice) were collected at 1 h, 4 h, 8 h, 24 h, 48 h, 96 h, 192 h, or 336 h post-dosing to detect the concentration of payload at each time point. The rate of TGI (n = 5 mice, measured at endpoint, i.e., 336 h) was determined to evaluate the antitumor efficacy of ADC. Body weight changes and mortality were also recorded to evaluate the tolerability of the testing items.

[14] = in vitro stability in monkey plasma (payload release); assay type: in vitro ADME, cynomolgus monkeys; conditions: cynomolgus monkey plasma, 50 μg/ml, 37°C, 48-h incubation
[15] = in vitro stability in human plasma (payload release); assay type: in vitro ADME; conditions: 50 μg/ml, 37°C, 48-h incubation
[16] = test system: triple-negative breast cancer; set-up: method as in PMID 28291390, PMID 25944802; conditions: drug-resistant triple-negative breast cancer (TNBC) patients; cited from earlier work
[17] = set-up: method as in PMID 25494821; conditions: cited from earlier work
[18] = set-up: method as in PMID 25944802; conditions: tumor-bearing mice model; previous studies; cited from earlier work
[19] = plasma, payload after single i.v. 3 mg/kg SKB264 (KL610023) or IMMU-132 (SN-38), HCC1806 tumor-bearing mice, mean, n = 5
[20] = tumor, payload after single i.v. 3 mg/kg SKB264 (KL610023) or IMMU-132 (SN-38), HCC1806 tumor-bearing mice, mean, n = 5

## CCc1c2c(nc3ccc(O)cc13)-c1cc3c(c(=O)n1C2)COC(=O)[C@]3(O)CC [SN-38]
[1]
  IC50: 1100 nM
[2]
  IC50: 2.61 nM
[3]; [19]
  AUC0-∞ of payload: 22.17 ng·h/mL
  AUClast of payload: 19.26 ng·h/mL
  C max of payload: 1.32 ng/mL
  t 1/2 of payload: 15.5 h
[3]; [20]
  AUC0-∞ of payload: 448 ng·h/g
  AUClast of payload: 410 ng·h/g
  C max of payload: 4.5 ng/g
  T max of payload: 24 h
  t 1/2 of payload: 57.4 h

## SKB264 mAb: humanized anti-TROP2 mAb with the same amino acid sequence as the antibody of IMMU-132
[4]
  EC50 of the affinity with monkey TROP2: 3.399 ng/mL
[5]
  EC50 binding to rat TROP2 protein: > 5,000 ng/ml
[6]
  EC50 binding to mouse TROP2 protein: > 5,000 ng/ml
[7]
  EC50: 16.1 nM
[8]
  EC50: 8.09 nM
[9]
  percentage of endocytosis: increased over time
[10]
  percentage of endocytosis: increased over time
[11]
  EC50 determination on Human TROP2: 2.731 ng/mL

## sacituzumab govitecan [IMMU-132]
[12]
  Kd: 0.293 nM
[13]; 1 mg/kg i.v. twice a week for six times
  TGI: 48.12%
[13]; 3 mg/kg i.v. twice a week for six times
  TGI: 70.64%
[13]; 10 mg/kg i.v. twice a week for six times
  TGI: 153.27%
[13]; HCC1806 xenograft, all treatment groups 1, 3, 10 mg/kg
  body weight of the experimental mice: no significant change
[3]; HCC1806 xenograft, single i.v. 3 mg/kg, after 13 days (336 h)
  TGI: 21.05%
[14]
  release rate of the payload: ~100%
[15]
  release rate of the payload: ~100%
[16]
  objective response rate (ORR): 33%
[17]
  half-life in serum: ~ 1 day
[18]
  half-life: 14 h
